Assay results published in PMC6946680, “Modulation of brain cation-Cl^− cotransport via the SPAK kinase inhibitor ZT-1a” (Nature Communications, 2020).
“And” between values parts separate entries of the source, which are not always exact repeats. Equal values may be shown once.

Assays:
[1] = test system: KCC3; test: Immunoblot of total KCC3 / Actin in HEK-293 cells transfected with FLAG-KCC3; format: cell-based, human; settings: Fig S4b
[2] = test system: T1, SPAK–WNK1 interaction; test: SPAK antibody pull-down / co-immunoprecipitation of WNK1 from HEK-293 cell lysates; format: binding, human; settings: for WNK1 co-immunoprecipitated with SPAK (band quantification): Fig S6
T1 construct: endogenous in cells; host or cells: HEK-293
Procedure: Supplemental Fig. 6 Evidence that SPAK associates with WNK1, and interaction is disrupted by ZT-1a and its analogs. Non-transfected HEK293 cell lysates were incubated with the RFQV peptide […]
ZT-1a for 30 min on ice and subjected to SPAK antibody immunoprecipitation. Immunoprecipitates were subjected to immunoblot probed with antibody to total WNK1 and antibody to total SPAK. Left panels: representative immunoblots. Right panels, summarized data quantitated by densitometry (n=3, means ± SEM; **,

[3] = test system: pJNK; test: Immunoblot of phospho-JNK in ischemic mouse brain; format: in vivo
Text: Cytosol and crude membrane protein
Expressions of Na+-K+ ATPase
respectively. d Densitometric analyses of immunoblots.

[4] = test system: p38g MAPK; test: Kinase profiling panel; format: biochemical
Procedure: (§1) Supplementary Table 2. ZT-1a kinase profiling data6.
(§2) ZT-1a was tested at 10 and 1 µM against a panel of 140 recombinant kinases in an enzymatic
(§3) activity-based assay performed by the International Centre for Kinase Profiling in the MRC
(§4) Protein Phosphorylation and Ubiquitylation Unit. Values represent % residual kinase activity

[5] = test system: DYRK1A; test: Kinase profiling panel; format: biochemical
Procedure: as §1, §2, §3, §4

[6] = test system: CLK2; test: Kinase profiling panel; format: biochemical
Procedure: as §1, §2, §3, §4

[7] = test system: EPH-B3; test: Kinase profiling panel; format: biochemical
Procedure: as §1, §2, §3, §4

[8] = test system: TLK1; test: Kinase profiling panel; format: biochemical
Procedure: as §1, §2, §3, §4

[9] = test system: MST2; test: Kinase profiling panel; format: biochemical
Procedure: as §1, §2, §3, §4

[10] = test system: MKK2; test: Kinase profiling panel; format: biochemical
Procedure: as §1, §2, §3, §4

[11] = target: T2, GST–[T233E]SPAK kinase (Homo sapiens, UniProt Q9UEW8, T231E); test: SPAK kinase assay with CATCHtide and IC50 determination; format: biochemical
T2 construct: made in house; host or cells: E. coli
Text: II. Experimental procedures
1. Reagents and General methods
Tissue culture reagents were from Life Technologies. P81 phosphocellulose paper was from Whatman […]
and [γ-32P]-ATP was from Perkin Elmer. […] Protein G […]
sepharose was from Amersham. DNA constructs used for transfection were purified from Escherichia coli DH5α using Qiagen or Invitrogen plasmid Maxi kits according to the manufacturer's protocol. All DNA constructs were verified by DNA sequencing.
2. Plasmids, protein expression and purification
DNA clones were from the Division of Signal Transduction Therapy (University of Dundee). The SPAK proteins were expressed in E. Coli and purified as described previously 1.
3. SPAK kinase assays and IC50 determination
SPAK kinase assays employed CATCHtide (cation chloride co-transporter peptide substrate). Peptide kinase assays, performed in triplicate, were set up in a total volume of 50 μl containing 0.5 μg GST– […]
cpm/pmol) and the indicated concentrations of inhibitor dissolved in DMSO. After incubation for 30 min at 30°C, reactions were terminated by spotting 40 μl of the reaction mix onto P81 phosphocellulose paper and immersion in 50 mM phosphoric acid. The papers were washed extensively and incorporation of [γ-32P]ATP into CATCHtide was quantified by Cerenkov counting.
IC50 values were calculated with GraphPad Prism using non-linear regression analysis.
4. Fluorescence polarization […]
concentrations between 0.00001 to 1 mM. Data points are the means of three determinations, with error […]
A Supplemental Fig. 7 Effects of increasing concentrations of ZT-1a on SPAK activity in the absence […]
the absence or presence of five-fold molar excess of wild-type MO25α. b Kinetic data determined for B ZT-1a in the absence or presence of five-fold molar excess of wild-type MO25α. Data are means of […]
presence of wild-type MO25α.

With `Cc1cc(C(C#N)c2ccc(Cl)cc2)c(Cl)cc1NC(=O)c1cc(Cl)ccc1O` (stereo not drawn) [ZT-1a, 5-chloro-N-(5-chloro-4-((4-chlorophenyl)(cyano)methyl)-2-methylphenyl)-2-hydroxybenzamide] the “KCC3 / Actin” value ([1]; ZT-1a 0.3 uM) was 2.04 and 1.923 and 2.091 and 1.84, the “KCC3 / Actin” value ([1]; ZT-1a 1 uM) was 1.85 and 1.949 and 1.921 and 1.782 and the “KCC3 / Actin” value ([1]; ZT-1a 3 uM) was 1.87 and 1.905 and 1.972 and 1.73. The “WNK1 co-immunoprecipitated with SPAK (band quantification)” value (“WNK1 co-immunoprecipitated with SPAK” for short) ([2]; 10 uM) was 0.445 and 0.402 and 0.4282 and 0.39, the “WNK1 co-immunoprecipitated with SPAK” value ([2]; 30 uM) was 0.176 and 0.186 and 0.196 and the “WNK1 co-immunoprecipitated with SPAK” value ([2]; 100 uM) was 0.121 and 0.086 and 0.0911 and 0.105. The “WNK1 co-immunoprecipitated with SPAK” value ([2]; 300 uM) was 0.066 and 0.072 and 0.068 and 0.058, the “WNK1 co-immunoprecipitated with SPAK” value ([2]; 1000 uM) was 0.048 and 0.027 and 0.0332 and 0.031 and the “co-immunoprecipitation of WNK1 with SPAK” value ([2]; HEK-293 cell lysates, absence or presence of competitor peptide) was “abolished by ZT-1a more potently than by STOCK1S-50699 or by Closantel”. The “pJNK/GAPDH (fold veh-CL)” value ([3]; Cytosol, CL, Fig S4d) was 1.00 fold veh-CL and 1.48 fold veh-CL and 0.87 fold veh-CL and 0.76 fold veh-CL, the “pJNK/Na K pump (fold veh-CL)” value ([3]; Membrane, IL, Fig S4d) was 2.05 fold veh-CL and 1.64 fold veh-CL and 1.81 fold veh-CL and 1.40 fold veh-CL and the “p-JNK in ischemic brains” value ([3]; ZT-1a 5.0 mg/kg) was “no marked inhibition”. The “% residual kinase activity” value ([4]; 1 µM) was 100±11%, the “% residual kinase activity” value ([4]; 10 µM) was 100±6% and the “% residual kinase activity” value ([5]; 1 µM) was 119±7%. For the same compound, the “% residual kinase activity” value ([5]; 10 µM) was 103±1%, the “% residual kinase activity” value ([6]; 1 µM) was 68±12% and the “% residual kinase activity” value ([6]; 10 µM) was 33±45%. For the same compound, the “% residual kinase activity” value ([7]; 1 µM) was 88±6%, the “% residual kinase activity” value ([7]; 10 µM) was 84±6% and the “% residual kinase activity” value ([8]; 1 µM) was 130±13%. The “% residual kinase activity” value ([8]; 10 µM) was 124±4%, the “% residual kinase activity” value ([9]; 1 µM) was 115±4% and the “% residual kinase activity” value ([9]; 10 µM) was 113±2%. For the same compound, the “% residual kinase activity” value ([10]; 1 µM) was 126±2%, the “% residual kinase activity” value ([10]; 10 µM) was 81±27% and the “change of SPAK IC50 values on addition of MO25α” value [11] was “not significantly altered”. For the same compound, the “SPAK kinase activity signal (Fig S3 source data)” value (shortened to “SPAK kinase activity signal”) ([11]; ATP 0.01 mM, inhibitor 1e-5 uM) was 911 and 899 and 905, the “SPAK kinase activity signal” value ([11]; ATP 0.01 mM, inhibitor 0.0001 uM) was 906 and 879 and 883 and the “SPAK kinase activity signal” value ([11]; ATP 0.01 mM, inhibitor 0.001 uM) was 901 and 899 and 907. For the same compound, the “SPAK kinase activity signal” value ([11]; ATP 0.01 mM, inhibitor 0.003 uM) was 805, the “SPAK kinase activity signal” value ([11]; ATP 0.01 mM, inhibitor 0.03 uM) was 855 and 847 and 825 and the “SPAK kinase activity signal” value ([11]; ATP 0.01 mM, inhibitor 0.1 uM) was 867 and 893 and 851. The “SPAK kinase activity signal” value ([11]; ATP 0.01 mM, inhibitor 0.3 uM) was 813 and 804 and 787, the “SPAK kinase activity signal” value ([11]; ATP 0.01 mM, inhibitor 1 uM) was 756 and 821 and 793 and the “SPAK kinase activity signal” value ([11]; ATP 0.01 mM, inhibitor 3 uM) was 663 and 688 and 705. For the same compound, the “SPAK kinase activity signal” value ([11]; ATP 0.01 mM, inhibitor 10 uM) was 478 and 525 and 503, the “SPAK kinase activity signal” value ([11]; ATP 0.01 mM, inhibitor 100 uM) was 456 and 325 and 371 and the “SPAK kinase activity signal” value ([11]; ATP 0.01 mM, inhibitor 1000 uM) was 220 and 194 and 213. For the same compound, the “SPAK kinase activity signal” value ([11]; ATP 0.1 mM, inhibitor 1e-5 uM) was 902 and 887 and 849, the “SPAK kinase activity signal” value ([11]; ATP 0.1 mM, inhibitor 0.0001 uM) was 867 and 845 and 874 and the “SPAK kinase activity signal” value ([11]; ATP 0.1 mM, inhibitor 0.001 uM) was 844 and 856 and 837. For the same compound, the “SPAK kinase activity signal” value ([11]; ATP 0.1 mM, inhibitor 0.03 uM) was 798 and 815 and 804, the “SPAK kinase activity signal” value ([11]; ATP 0.1 mM, inhibitor 0.1 uM) was 796 and 805 and 782 and the “SPAK kinase activity signal” value ([11]; ATP 0.1 mM, inhibitor 0.3 uM) was 796 and 786 and 754.
